According to PubChem BioAssay (NCI):
Where “and” joins values, the source holds several entries; their conditions need not be identical. Equal entries are not always repeated.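 Cells were grown in 96-well plates and exposed to each compound for 48 hours at five concentrations; endpoints were interpolated linearly between bracketing concentrations, or set to the highest concentration if not reached. At the GI50, growth is halved. Definition used: TGI = concentration required for complete inhibition of growth.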

Experiments:
Experiment in all cases: NCI tumour cell line growth inhibition, 48 h
[1] = system: P388/ADR leukemia
[2] = system: SK-MEL-28 melanoma
[3] = system: OVCAR-3 ovarian
[4] = system: XF 498 CNS
[5] = system: HCC-2998 colon
[6] = system: RPMI-8226 leukemia
[7] = system: NCI-H460 lung
[8] = system: HOP-62 NSCLC
[9] = system: DMS 273 small cell lung
[10] = system: KM20L2 colon
[11] = system: HL-60(TB) leukemia
[12] = system: HCT-116 colon
[13] = system: OVCAR-5 ovarian
[14] = system: NCI-H522 lung
[15] = system: SW-620 colon
[16] = system: K-562 leukemia
[17] = system: MALME-3M melanoma
[18] = system: SK-OV-3 ovarian
[19] = system: IGROV1 ovarian
[20] = system: SK-MEL-2 melanoma
[21] = system: DMS 114 small cell lung
[22] = system: UO-31 renal
[23] = system: SF-295 CNS
[24] = system: LOX IMVI melanoma
[25] = system: COLO 205 colon
[26] = system: SNB-78 CNS
[27] = system: SNB-75 CNS
[28] = system: CCRF-CEM leukemia
[29] = system: OVCAR-8 ovarian
[30] = system: M19-MEL melanoma
[31] = system: SNB-19 CNS
[32] = system: HT29 colon
[33] = system: A498 renal
[34] = system: A549 NSCLC
[35] = system: OVCAR-4 ovarian
[36] = system: MCF7 breast
[37] = system: EKVX NSCLC
[38] = system: U251 CNS
[39] = system: MOLT-4 leukemia
[40] = system: SN12C renal
[41] = system: UACC-257 melanoma
[42] = system: SK-MEL-5 melanoma
[43] = system: HCT-15 colon
[44] = system: UACC-62 melanoma
[45] = system: SF-539 CNS
[46] = system: NCI/ADR-RES ovarian
[47] = system: DLD-1 colon
[48] = system: SN12K1 renal
[49] = system: HOP-92 NSCLC
[50] = system: CAKI-1 renal
[51] = system: HOP-18 NSCLC
[52] = system: SF-268 CNS
[53] = system: NCI-H226 lung
[54] = system: KM12 colon
[55] = system: NCI-H23 lung
[56] = system: RXF 393 renal
[57] = system: P388 leukemia
[58] = system: LXFL 529 NSCLC
[59] = system: RXF-631 renal
[60] = system: M14 melanoma
[61] = system: TK-10 renal
[62] = system: ACHN renal
[63] = system: SR leukemia
[64] = system: 786-0 renal

CC/C=C\C/C=C\C/C=C\CCCCCCCC(=O)OC
TGI [1]: 66.3 µM
TGI [2]: > 100 µM
TGI [3]: > 100 µM
TGI [4]: > 100 µM
TGI [5]: > 100 µM
GI50 [6]: 19.8 µM
TGI [6]: 69.9 µM and > 100 µM
TGI [7]: > 100 µM
TGI [8]: > 100 µM
TGI [9]: > 100 µM
GI50 [10]: > 100 µM
TGI [10]: > 100 µM
TGI [11]: 49.9 µM
GI50 [12]: 70.6 µM
TGI [12]: > 100 µM
TGI [13]: > 100 µM
TGI [14]: > 100 µM
TGI [15]: > 100 µM
GI50 [16]: 39.4 µM
TGI [16]: > 100 µM
TGI [17]: > 100 µM
TGI [18]: > 100 µM
TGI [19]: > 100 µM
TGI [20]: > 100 µM
GI50 [21]: 83.3 µM
TGI [21]: > 100 µM
TGI [22]: > 100 µM
TGI [23]: > 100 µM
GI50 [24]: 25 µM
TGI [24]: 68.4 µM and 38.3 µM
GI50 [25]: > 100 µM
TGI [25]: > 100 µM
GI50 [26]: > 100 µM
TGI [26]: > 100 µM
GI50 [27]: > 100 µM
TGI [27]: > 100 µM
GI50 [28]: 3.72 µM
TGI [28]: > 100 µM
GI50 [29]: 0.0205 µM
TGI [29]: 11.8 µM and > 100 µM
GI50 [30]: 45.1 µM
TGI [30]: > 100 µM
TGI [31]: > 100 µM
TGI [32]: > 100 µM
TGI [33]: > 100 µM
TGI [34]: > 100 µM
TGI [35]: > 100 µM
GI50 [36]: 37.8 µM
TGI [36]: > 100 µM
TGI [37]: > 100 µM
TGI [38]: > 100 µM
TGI [39]: > 100 µM
TGI [40]: > 100 µM
TGI [41]: > 100 µM
TGI [42]: > 100 µM
TGI [43]: > 100 µM
TGI [44]: > 100 µM
TGI [45]: > 100 µM
TGI [46]: > 100 µM
TGI [47]: > 100 µM
TGI [48]: > 100 µM
TGI [49]: > 100 µM
TGI [50]: > 100 µM
TGI [51]: > 100 µM
TGI [52]: > 100 µM
TGI [53]: > 100 µM
TGI [54]: > 100 µM
TGI [55]: > 100 µM

COC1=C(C)C(=O)C2=C(C1=O)[C@@H]1[C@@H]3Cc4c(OC(=O)CO)c(C)c(OC)c(O)c4[C@H](CNC(=O)C(C)=O)N3[C@@H](C#N)[C@H](C2)N1C
TGI [1]: 1.82 µM
TGI [2]: 1.2 µM
TGI [3]: 0.0366 µM
TGI [4]: < 0.01 µM
TGI [5]: 0.226 µM
TGI [6]: 0.389 µM
TGI [7]: 1.83 µM
TGI [8]: 1.16 µM
TGI [9]: 0.065 µM
TGI [10]: 0.686 µM
TGI [11]: 2.75 µM
TGI [12]: 12.1 µM
TGI [13]: 0.447 µM
TGI [14]: < 0.0139 µM
TGI [15]: 3.24 µM
TGI [16]: 7.77 µM
TGI [17]: 0.351 µM
TGI [18]: 28.6 µM
TGI [20]: 0.0359 µM
TGI [21]: < 0.01 µM
TGI [22]: 0.362 µM
TGI [23]: 2.28 µM
TGI [24]: < 0.01 µM
TGI [56]: 0.0392 µM
TGI [25]: < 0.0309 µM
TGI [26]: 0.998 µM
TGI [29]: 0.684 µM
TGI [30]: 0.0463 µM
TGI [32]: 10.6 µM
TGI [34]: 49 µM
TGI [35]: 0.484 µM
TGI [36]: 13.9 µM
TGI [57]: 0.0205 µM
TGI [38]: 4.09 µM
TGI [39]: 0.173 µM
TGI [40]: 10.8 µM
TGI [41]: 0.0364 µM
TGI [42]: 0.0393 µM
TGI [44]: < 0.0368 µM
TGI [45]: 0.24 µM
TGI [46]: 17.1 µM
TGI [49]: < 0.0258 µM
TGI [50]: 7.87 µM
TGI [51]: 0.0966 µM
TGI [52]: 0.208 µM
TGI [53]: 0.834 µM
TGI [54]: 2.05 µM
TGI [55]: < 0.0176 µM

O=S1c2ccccc2N=C(c2cccc3ccccc23)CC1c1cccc2ccccc12 (stereo unspecified)
TGI [2]: 20.6 µM
TGI [3]: 40.5 µM
TGI [4]: 37.5 µM
TGI [5]: 31.8 µM
TGI [6]: 50.9 µM
TGI [7]: 40.6 µM
TGI [8]: > 100 µM
TGI [58]: 33.6 µM
TGI [9]: > 100 µM
TGI [10]: > 100 µM
TGI [11]: 30.5 µM
TGI [12]: 39.3 µM
TGI [13]: 58.3 µM
TGI [14]: 30 µM
TGI [15]: 37.5 µM
TGI [16]: 60.5 µM
TGI [59]: > 100 µM
TGI [17]: 37.4 µM
TGI [18]: > 100 µM
TGI [19]: 34 µM
TGI [20]: 40.9 µM
TGI [21]: 34.8 µM
TGI [22]: 67.8 µM
TGI [23]: 71.2 µM
TGI [24]: 27.9 µM
TGI [56]: 38.7 µM
TGI [25]: 37.6 µM
TGI [60]: 28.1 µM
TGI [26]: > 100 µM
TGI [27]: 49.1 µM
TGI [28]: 49.1 µM
TGI [61]: 89.3 µM
TGI [29]: 46.3 µM
TGI [30]: 4.33 µM
TGI [31]: 66.7 µM
TGI [32]: 49.5 µM
TGI [33]: 39.2 µM
TGI [34]: 36.7 µM
TGI [35]: 27.8 µM
TGI [62]: 56.4 µM
TGI [37]: 84.1 µM
TGI [63]: 49.2 µM
TGI [38]: 37.7 µM
TGI [39]: 55.3 µM
TGI [40]: 30.5 µM
TGI [41]: 31.2 µM
TGI [42]: 19.9 µM
TGI [43]: 32 µM
TGI [44]: 26.4 µM
TGI [45]: 40.6 µM
TGI [64]: 76.6 µM
TGI [47]: 62.8 µM
TGI [50]: 71.2 µM
TGI [51]: 25.2 µM
TGI [52]: 57.5 µM
TGI [53]: 42.2 µM
TGI [54]: 32 µM
TGI [55]: 39.1 µM

CCCCCCCCCCC(=O)CC(=O)c1c(O)cccc1O
TGI [2]: > 100 µM
TGI [3]: 63.7 µM
TGI [4]: 46.2 µM
TGI [5]: > 100 µM
TGI [6]: 50.2 µM
TGI [7]: > 100 µM
TGI [8]: 72.9 µM
TGI [58]: > 100 µM
TGI [9]: 58.2 µM
TGI [10]: > 100 µM
TGI [11]: 37.3 µM
TGI [12]: 41.8 µM
TGI [13]: 49.1 µM
TGI [14]: 90.4 µM
TGI [15]: > 100 µM
TGI [16]: 81.3 µM
TGI [59]: > 100 µM
TGI [17]: > 100 µM
TGI [18]: > 100 µM
TGI [19]: > 100 µM
TGI [21]: 72 µM
TGI [22]: 85.9 µM
TGI [23]: > 100 µM
TGI [24]: 37 µM
TGI [56]: 72.5 µM
TGI [25]: > 100 µM
TGI [60]: > 100 µM
TGI [26]: > 100 µM
TGI [27]: > 100 µM
TGI [61]: > 100 µM
TGI [29]: > 100 µM
TGI [30]: 67.1 µM
TGI [31]: > 100 µM
TGI [32]: > 100 µM
TGI [33]: > 100 µM
TGI [34]: > 100 µM
TGI [35]: > 100 µM
TGI [62]: 91.3 µM
TGI [37]: > 100 µM
TGI [63]: > 100 µM
TGI [38]: 69.5 µM
TGI [39]: 59 µM
TGI [40]: > 100 µM
TGI [41]: 96 µM
TGI [42]: 72.8 µM
TGI [43]: > 100 µM
TGI [44]: > 100 µM
TGI [45]: > 100 µM
TGI [64]: > 100 µM
TGI [47]: > 100 µM
TGI [49]: 82 µM
TGI [50]: > 100 µM
TGI [51]: 98.7 µM
TGI [52]: > 100 µM
TGI [53]: 63.6 µM
TGI [54]: > 100 µM
TGI [55]: 81.7 µM
